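Following 48 hours of exposure in 96-well plates, responses at five concentrations were used to interpolate endpoints linearly. GI50 is the concentration that inhibits growth by half.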 Calls of active or inactive are those of the source. No stated cut-off is given here; in the data, active = GI50 up to about 1.1 µM and inactive = higher.
Tests used:
Test in all cases: NCI anticancer screen, dose series, 48 h
[1] = system: CCRF-CEM
[2] = system: K562
[3] = system: HL-60
[4] = system: MDA-MB-231
[5] = system: SR
[6] = system: HCT-15
[7] = system: Hs-578T
[8] = system: SF-295
[9] = system: UACC-62
[10] = system: SNB-19
[11] = system: IGROV-1
[12] = system: ACHN
[13] = system: HOP-92
[14] = system: NCI-H460
[15] = system: MDA-N
[16] = system: SK-MEL-28
[17] = system: UO-31
[18] = system: 786-0
[19] = system: HT-29
[20] = system: A498
[21] = system: OVCAR-5
[22] = system: SK-MEL-5
[23] = system: RXF 393
[24] = system: U-251
[25] = system: CAKI-1
[26] = system: SK-MEL-2
[27] = system: OVCAR-4
[28] = system: MDA-MB-435
[29] = system: UACC-257
[30] = system: HCC 2998
[31] = system: NCI/ADR-RES
[32] = system: MOLT-4
[33] = system: Malme-3M
[34] = system: PC-3
[35] = system: A549
[36] = system: SK-OV-3
[37] = system: NCI-H522
[38] = system: RPMI-8226
[39] = system: EKVX
[40] = system: LOX IMVI
[41] = system: SF-268
[42] = system: T47D
[43] = system: OVCAR-8
[44] = system: SNB-75
[45] = system: NCI-H23
[46] = system: DU-145
[47] = system: TK-10
[48] = system: HOP-62
[49] = system: KM12
[50] = system: SN12C
[51] = system: SW-620
[52] = system: SF-539
[53] = system: HCT-116
[54] = system: COLO 205
[55] = system: M14
[56] = system: NCI-H226
[57] = system: OVCAR-3

N/N=C(\N)SCc1ccc(N=C=S)cc1
GI50 [1]: > 100 µM (inactive) | GI50 [2]: > 100 µM (inactive) | GI50 [3]: > 100 µM (inactive) | GI50 [4]: > 100 µM (inactive) | GI50 [5]: > 100 µM (inactive) | GI50 [6]: > 100 µM | GI50 [7]: > 100 µM (inactive) | GI50 [8]: > 100 µM (inactive) | GI50 [9]: > 100 µM (inactive) | GI50 [10]: > 100 µM (inactive) | GI50 [11]: > 100 µM (inactive) | GI50 [12]: > 100 µM (inactive) | GI50 [13]: > 100 µM (inactive) | GI50 [14]: > 100 µM (inactive) | GI50 [15]: > 100 µM (inactive) | GI50 [16]: > 100 µM (inactive) | GI50 [17]: > 100 µM (inactive) | GI50 [18]: > 100 µM (inactive) | GI50 [19]: > 100 µM (inactive) | GI50 [20]: > 100 µM (inactive) | GI50 [21]: > 100 µM (inactive) | GI50 [22]: > 100 µM (inactive) | GI50 [23]: > 100 µM (inactive) | GI50 [24]: > 100 µM (inactive) | GI50 [25]: > 100 µM (inactive) | GI50 [26]: > 100 µM (inactive) | GI50 [27]: > 100 µM (inactive) | GI50 [28]: > 100 µM (inactive) | GI50 [29]: > 100 µM (inactive) | GI50 [30]: > 100 µM (inactive) | GI50 [31]: > 100 µM (inactive) | GI50 [32]: > 100 µM (inactive) | GI50 [33]: > 100 µM (inactive) | GI50 [34]: > 100 µM (inactive) | GI50 [35]: > 100 µM (inactive) | GI50 [36]: > 100 µM (inactive) | GI50 [37]: 5.9 µM (inactive) | GI50 [38]: > 100 µM (inactive) | GI50 [39]: > 100 µM (inactive) | GI50 [40]: > 100 µM (inactive) | GI50 [41]: > 100 µM (inactive) | GI50 [42]: > 100 µM (inactive) | GI50 [43]: > 100 µM (inactive) | GI50 [44]: > 100 µM (inactive) | GI50 [45]: > 100 µM (inactive) | GI50 [46]: > 100 µM (inactive) | GI50 [47]: > 100 µM (inactive) | GI50 [48]: > 100 µM (inactive) | GI50 [49]: > 100 µM (inactive) | GI50 [50]: > 100 µM (inactive) | GI50 [51]: > 100 µM (inactive) | GI50 [52]: > 100 µM (inactive) | GI50 [53]: > 100 µM (inactive) | GI50 [54]: > 100 µM (inactive)

COc1ccc2cc3[n+](cc2c1OC)CCc1cc2c(cc1-3)OCO2
GI50 [1]: 18.4 µM (inactive) | GI50 [3]: 18.2 µM (inactive) | GI50 [4]: 21.5 µM (inactive) | GI50 [7]: 11.3 µM (inactive) | GI50 [9]: 16 µM (inactive) | GI50 [10]: 5.69 µM (inactive) | GI50 [55]: 39.8 µM (inactive) | GI50 [11]: 55.5 µM (inactive) | GI50 [12]: > 100 µM (inactive) | GI50 [13]: 24.5 µM (inactive) | GI50 [14]: 14.9 µM (inactive) | GI50 [16]: 14.7 µM (inactive) | GI50 [18]: 45 µM (inactive) | GI50 [19]: 38.8 µM (inactive) | GI50 [22]: 4.78 µM (inactive) | GI50 [26]: 23.8 µM (inactive) | GI50 [28]: 12.6 µM (inactive) | GI50 [33]: 7.6 µM (inactive) | GI50 [34]: 20.3 µM (inactive) | GI50 [36]: 78 µM (inactive) | GI50 [40]: 59.6 µM (inactive) | GI50 [41]: 6.75 µM (inactive) | GI50 [42]: 5.26 µM (inactive) | GI50 [43]: 16.8 µM (inactive) | GI50 [45]: 7.93 µM (inactive) | GI50 [46]: 35.7 µM (inactive) | GI50 [47]: 85.5 µM (inactive) | GI50 [49]: 6.11 µM (inactive) | GI50 [51]: 55.3 µM (inactive) | GI50 [52]: 52.2 µM (inactive)

O=c1c2cc([N+](=O)[O-])ccc2n2n1CCCCC2
GI50 [1]: > 100 µM (inactive) | GI50 [2]: > 100 µM (inactive) | GI50 [3]: > 100 µM (inactive) | GI50 [4]: > 100 µM (inactive) | GI50 [5]: > 100 µM (inactive) | GI50 [6]: > 100 µM | GI50 [7]: > 100 µM (inactive) | GI50 [8]: > 100 µM (inactive) | GI50 [9]: > 100 µM (inactive) | GI50 [10]: > 100 µM (inactive) | GI50 [55]: > 100 µM (inactive) | GI50 [11]: > 100 µM (inactive) | GI50 [12]: > 100 µM (inactive) | GI50 [13]: > 100 µM (inactive) | GI50 [14]: > 100 µM (inactive) | GI50 [15]: > 100 µM (inactive) | GI50 [16]: > 100 µM (inactive) | GI50 [17]: > 100 µM (inactive) | GI50 [18]: > 100 µM (inactive) | GI50 [19]: > 100 µM (inactive) | GI50 [20]: > 100 µM (inactive) | GI50 [21]: > 100 µM (inactive) | GI50 [22]: > 100 µM (inactive) | GI50 [23]: > 100 µM (inactive) | GI50 [24]: > 100 µM (inactive) | GI50 [56]: > 100 µM (inactive) | GI50 [25]: > 100 µM (inactive) | GI50 [27]: > 100 µM (inactive) | GI50 [28]: > 100 µM (inactive) | GI50 [29]: > 100 µM (inactive) | GI50 [30]: > 100 µM (inactive) | GI50 [31]: > 100 µM (inactive) | GI50 [32]: > 100 µM (inactive) | GI50 [33]: > 100 µM (inactive) | GI50 [34]: > 100 µM (inactive) | GI50 [35]: > 100 µM (inactive) | GI50 [36]: > 100 µM (inactive) | GI50 [37]: > 100 µM (inactive) | GI50 [38]: > 100 µM (inactive) | GI50 [39]: > 100 µM (inactive) | GI50 [40]: > 100 µM (inactive) | GI50 [41]: > 100 µM (inactive) | GI50 [43]: > 100 µM (inactive) | GI50 [44]: > 100 µM (inactive) | GI50 [45]: > 100 µM (inactive) | GI50 [46]: > 100 µM (inactive) | GI50 [47]: 61.8 µM (inactive) | GI50 [48]: > 100 µM (inactive) | GI50 [57]: > 100 µM (inactive) | GI50 [49]: > 100 µM (inactive) | GI50 [50]: > 100 µM (inactive) | GI50 [51]: > 100 µM (inactive) | GI50 [52]: > 100 µM (inactive) | GI50 [53]: > 100 µM (inactive) | GI50 [54]: > 100 µM (inactive)

From ChEMBL document CHEMBL1201862, “PubChem BioAssay data set” (2004)
